Values quoted from earlier work, collected in US12649952B2, “NTRK fusion molecules and uses thereof” (Foundation Medicine, Inc., priority 2019, dated 2026).
pIC50, pKd: −log10 of the molar value. Where two headings read alike, the source gives them in different places.

What was measured:
tumor xenograft models = conditions: variety of preclinical tumor xenograft models
[1] = test system: lung adenocarcinoma with KRAS mutation; conditions: mouse, in vivo
solid tumors [2] = conditions: Phase 1, solid tumors
TrkA = TrkA (Homo sapiens, UniProt P04629); conditions: for inhibition of Ntrk1 / NTRK1: result in words
[3] = test system: preclinical tumor models including a xenograft model of lung cancer; conditions: in vivo
Ntrk1/Hsp90 [4] = conditions: results in degradation and depletion of Ntrk1
myeloid leukemia cells [5] = test system: myeloid leukemia cells
Ntrk1/Hsp90 [6] = test system: Ntrk1/Hsp90
myeloid leukemia cells [7] = test system: myeloid leukemia cells; remark: listed apart in the source
NGF dimer = NGF dimer (Homo sapiens, UniProt P01138); conditions: read-out: KD for binding the NGF dimer
NTRK gene fusions = conditions: after further follow-up, expanded patient population (n=159)
[8] = test system: lung adenocarcinoma cell line
neuroblastoma xenograft = conditions: in vivo
neuroblastoma = conditions: human, in vivo
[9] = test system: solid tumors with NTRK fusions; conditions: monotherapy; adult and pediatric patients, with and without CNS metastases
[10] = test system: NTRK fusion-positive AML cell lines
[11] = test system: NTRK1 fusion-positive tumors; conditions: human, in vivo
[12] = test system: NTRK fusion-positive cancers
solid tumors [13] = conditions: Phase 1, 56 solid tumor patients
preclinical models = conditions: variety of preclinical models

TrkA, sequence (P04629 33-796): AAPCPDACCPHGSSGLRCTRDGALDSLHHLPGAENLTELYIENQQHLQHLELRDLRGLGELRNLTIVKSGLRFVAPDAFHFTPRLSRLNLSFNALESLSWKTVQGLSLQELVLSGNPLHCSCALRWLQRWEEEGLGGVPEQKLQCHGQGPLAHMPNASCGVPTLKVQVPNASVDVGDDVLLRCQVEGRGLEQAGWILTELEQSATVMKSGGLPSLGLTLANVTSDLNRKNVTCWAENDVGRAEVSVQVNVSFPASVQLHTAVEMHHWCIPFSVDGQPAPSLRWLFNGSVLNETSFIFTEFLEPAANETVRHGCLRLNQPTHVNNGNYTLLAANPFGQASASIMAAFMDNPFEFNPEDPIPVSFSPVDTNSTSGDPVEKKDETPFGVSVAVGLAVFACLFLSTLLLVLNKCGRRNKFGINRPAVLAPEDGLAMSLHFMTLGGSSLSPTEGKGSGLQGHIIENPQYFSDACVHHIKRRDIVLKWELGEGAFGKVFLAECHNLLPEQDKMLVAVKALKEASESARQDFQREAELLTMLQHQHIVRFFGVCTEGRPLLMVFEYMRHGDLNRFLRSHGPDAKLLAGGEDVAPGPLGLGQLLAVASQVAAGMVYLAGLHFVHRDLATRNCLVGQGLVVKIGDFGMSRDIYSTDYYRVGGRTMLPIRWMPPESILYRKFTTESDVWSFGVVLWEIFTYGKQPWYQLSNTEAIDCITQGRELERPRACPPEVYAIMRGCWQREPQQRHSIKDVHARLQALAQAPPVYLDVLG
NGF dimer, sequence (P01138 122-241): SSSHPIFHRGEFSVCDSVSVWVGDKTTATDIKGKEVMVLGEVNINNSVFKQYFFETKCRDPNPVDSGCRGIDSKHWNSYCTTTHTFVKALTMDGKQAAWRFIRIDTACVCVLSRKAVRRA

CNC(=O)c1nn(C)c2c1C(C)(C)Cc1cnc(Nc3ccc(N4CCN(C)CC4)cc3)nc1-2 [PHA-848125]
anti-tumor effect (tumor xenograft models): anti-tumor effect
tumor growth [1]: inhibit tumor growth
partial response (solid tumors [2]): 2/14
stable disease (solid tumors [2]): 9/28

Nc1ncc(-c2cnn(C3CCNCC3)c2)cc1-c1nc2ccccc2o1 [KRC-108]
inhibition of Ntrk1 / NTRK1 (TrkA): inhibit NTRK1
antiproliferative activity [3]: antiproliferative activity

CO[C@H]1/C=C\C=C(/C)C(=O)NC2=CC(=O)C(NCCN(C)C)=C(C[C@@H](C)C[C@H](OC)[C@H](O)[C@@H](C)/C=C(\C)[C@@H]1OC(N)=O)C2=O [17-DMAG]
Ntrk1/Hsp90 binding (Ntrk1/Hsp90 [4]): disrupted Ntrk1/Hsp90 binding
growth of myeloid leukemia cells (myeloid leukemia cells [5]): reduced the growth of myeloid leukemia cells
Ntrk1/Hsp90 binding (Ntrk1/Hsp90 [6]): disrupted Ntrk1/Hsp90 binding
Ntrk1 level (Ntrk1/Hsp90 [6]; consequence of disrupted Ntrk1/Hsp90 binding): degradation and depletion of Ntrk1
growth of myeloid leukemia cells (myeloid leukemia cells [7]): reduced the growth of myeloid leukemia cells

Cc1cc2nc3c(=O)[nH]c(=O)nc-3n(C)c2cc1C=O [Ro 08-2750]
pKd (NGF dimer): ~6.00

O=C(Nc1cnn2ccc(N3CCC[C@@H]3c3cc(F)ccc3F)nc12)N1CC[C@H](O)C1 [Larotrectinib, larotrectinib]
median duration of response (NTRK gene fusions): 35.2 (22.7—not evaluable [NE]) months
overall response rate (NTRK gene fusions): 79%
overall response rate (ORR) (NTRK fusion cancers; NTRK fusion cancers, current clinical trials): 75%
responses ongoing, share of patients (NTRK fusion cancers; at 12 months of treatment): 75-81%
CR observed, share of patients (NTRK fusion cancers; combined Phase 1, Phase 1/2 and Phase 2 data): 17%
ORR (NTRK fusion cancers; combined Phase 1, Phase 1/2 and Phase 2 data, adult and pediatric patients, various solid tumors harboring NTRK fusions (88/109)): 81%
intracranial efficacy (NTRK fusion cancers; individuals with NTRK fusion-positive gliomas or brain metastases): demonstrated

COC(=O)[C@@]1(O)C[C@H]2O[C@]1(C)n1c3ccccc3c3c4c(c5c6ccccc6n2c5c31)C(=O)NC4 [K252a, (9S-(9a, 108,12a))-2,3,9,10,11,12-hexahydro-10-hydroxy-10-(methoxycarbonyl)-9-methyl-9,12-epoxy-1H-diindolo [1,2,3-fg: 3′,2′,1′-kl] pyrrolo [3,4-i][1,6] benzodiazocin-1-one]
activation of the anti-apoptotic protein Akt [8]: block activation
cell death [8]: promote cell death
tumor cell growth [8]: reduce tumor cell growth

C[C@]12O[C@H](C[C@]1(O)CO)n1c3ccccc3c3c4c(c5c6ccccc6n2c5c31)CNC4=O [lestaurtinib, (5S,6S,8R)-6-hydroxy-6-(hydroxymethyl)-5-methyl-7,8,14,15-tetrahydro-5H-16-oxa-4b,8a,14-triaza-5,8-methanodibenzo[b,h]cycloocta[jkl]cyclopenta[e]-as-indacen-13(6H)-one]
tumor growth (neuroblastoma xenograft): inhibit tumor growth
efficacy in clinical trials (neuroblastoma): effective

CN1CCN(c2ccc(C(=O)Nc3n[nH]c4ccc(Cc5cc(F)cc(F)c5)cc34)c(NC3CCOCC3)c2)CC1 [entrectinib, N-[5-(3,5-Difluorobenzyl)-1H-indazol-3-yl]-4-(4-methyl-1-piperazinyl)-2-(tetrahydro-2H-pyran-4-ylamino)benzamide]
clinical benefit [9]: Clinical benefit
sensitivity of cell lines [10]: preclinical sensitivity

C[C@@H](Oc1cc(-c2cnn(C3CCNCC3)c2)cnc1N)c1c(Cl)ccc(F)c1Cl [crizotinib]
clinical responses [11]: Durable clinical responses

C[C@@H]1CCc2ncc(F)cc2[C@H]2CCCN2c2ccn3ncc(c3n2)C(=O)N1 [LOXO-195]
confirmed complete or partial response ([12]; 10 of 29 evaluable patients, RECIST 1.1, NTRK fusions resistant to other TRK-targeted therapeutics): 34%
safety and tolerability ([12]; solid tumor cancer patients with NTRK fusions resistant to other TRK-targeted therapeutics): safe, tolerable

CO[C@@H](C(=O)N1Cc2n[nH]c(NC(=O)c3ccc(N4CCN(C)CC4)cc3)c2C1)c1ccccc1 [danusertib]
inhibition of Ntrk1 / NTRK1 (TrkA): inhibit Ntrk1
objective response (solid tumors [13]): objective response in one non-small cell lung cancer patient
tumor regression (solid tumors [13]): tumor regression in an ovarian cancer patient

NC(=O)Nc1snc(S[C@@H]2CCCCc3ccccc32)c1C(N)=O [isothiazole 5n]
pIC50 (TrkA): > 9.00

CC(C)Oc1cc(Nc2nc(N[C@@H](C)c3ccc(F)cn3)ncc2Cl)n[nH]1 [AZ-23, 5-chloro-N-[(1S)-1-(5-fluoropyridin-2-yl)ethyl]-N′-(5-propan-2-yloxy-1H-pyrazol-3-yl)pyrimidine-2,4-diamine]
tumor growth (neuroblastoma xenograft): inhibit tumor growth

CO[C@]1(COC(=O)CCNC(=O)[C@@H](N)CCCCN)C[C@H]2O[C@]1(C)n1c3ccccc3c3c4c(c5c6ccccc6n2c5c31)C(=O)NC4 [CEP-2563]
anti-tumor activity (preclinical models): anti-tumor activity
